Test in all cases: KinomeScan kinase panel, single concentration 10 µM
Format in all cases: binding

Assay [1] concerns the target T1, KinomeScan kinase panel (Homo sapiens, UniProt O75385).
T1 construct: purchased DiscoveRx (KinomeScan)
T1 sequence (O75385 1-1050): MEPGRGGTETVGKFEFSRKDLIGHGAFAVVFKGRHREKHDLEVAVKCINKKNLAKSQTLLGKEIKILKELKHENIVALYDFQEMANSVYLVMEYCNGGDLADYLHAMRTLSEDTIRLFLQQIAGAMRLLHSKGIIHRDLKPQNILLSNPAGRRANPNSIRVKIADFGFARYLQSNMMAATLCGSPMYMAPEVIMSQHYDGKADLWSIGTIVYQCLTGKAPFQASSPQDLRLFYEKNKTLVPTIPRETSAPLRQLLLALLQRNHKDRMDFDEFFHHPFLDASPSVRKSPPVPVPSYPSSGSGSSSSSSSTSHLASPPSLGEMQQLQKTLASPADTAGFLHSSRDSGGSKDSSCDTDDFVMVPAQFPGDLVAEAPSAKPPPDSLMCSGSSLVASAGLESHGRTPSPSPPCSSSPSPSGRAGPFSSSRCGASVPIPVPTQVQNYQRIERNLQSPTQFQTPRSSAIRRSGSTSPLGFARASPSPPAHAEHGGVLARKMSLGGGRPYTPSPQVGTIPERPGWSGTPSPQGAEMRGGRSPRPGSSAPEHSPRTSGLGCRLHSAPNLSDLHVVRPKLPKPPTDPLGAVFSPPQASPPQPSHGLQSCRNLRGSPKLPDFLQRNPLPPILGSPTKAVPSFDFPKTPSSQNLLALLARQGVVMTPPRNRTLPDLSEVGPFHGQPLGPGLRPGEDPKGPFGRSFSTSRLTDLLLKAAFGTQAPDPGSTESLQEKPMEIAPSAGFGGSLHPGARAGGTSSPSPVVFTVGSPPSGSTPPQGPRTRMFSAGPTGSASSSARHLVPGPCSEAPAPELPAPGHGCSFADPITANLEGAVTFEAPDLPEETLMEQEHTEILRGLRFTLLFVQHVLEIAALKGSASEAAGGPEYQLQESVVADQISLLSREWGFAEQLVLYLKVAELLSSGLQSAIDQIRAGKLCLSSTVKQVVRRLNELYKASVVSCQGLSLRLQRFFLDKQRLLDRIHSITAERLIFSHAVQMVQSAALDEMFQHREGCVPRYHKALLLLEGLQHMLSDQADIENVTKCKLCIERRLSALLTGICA
The following applies: kinase ULK1; 10 µM.

For assay [2], the target named is T2, KinomeScan kinase panel (Homo sapiens, UniProt O96017).
T2 construct: purchased DiscoveRx (KinomeScan)
T2 sequence (O96017 whole entry): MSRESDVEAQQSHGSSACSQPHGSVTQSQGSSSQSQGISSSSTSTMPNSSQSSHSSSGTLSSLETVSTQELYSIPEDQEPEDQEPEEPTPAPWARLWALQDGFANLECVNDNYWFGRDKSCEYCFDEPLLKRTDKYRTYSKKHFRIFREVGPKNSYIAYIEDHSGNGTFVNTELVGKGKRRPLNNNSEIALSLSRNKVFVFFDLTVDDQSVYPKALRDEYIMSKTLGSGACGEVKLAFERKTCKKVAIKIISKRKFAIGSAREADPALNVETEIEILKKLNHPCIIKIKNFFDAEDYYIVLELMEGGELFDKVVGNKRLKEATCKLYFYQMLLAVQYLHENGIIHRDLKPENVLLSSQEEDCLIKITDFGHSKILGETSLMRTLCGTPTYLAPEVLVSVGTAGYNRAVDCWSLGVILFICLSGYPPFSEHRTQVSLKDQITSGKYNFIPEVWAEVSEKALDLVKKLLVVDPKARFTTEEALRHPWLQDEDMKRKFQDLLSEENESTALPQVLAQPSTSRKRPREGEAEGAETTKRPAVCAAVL
The following applies: CHEK2, 10 µM; read-out: score (%).

Assay [3] concerns the target T3, KinomeScan kinase panel (Homo sapiens, UniProt P10721, D816V).
T3 construct: purchased DiscoveRx (KinomeScan)
Particulars: KIT(D816V), 10 µM; read-out: score (%).

In assay [4] the target is T4, KinomeScan kinase panel (Homo sapiens, UniProt P36507).
T4 construct: purchased DiscoveRx (KinomeScan)
T4 sequence (P36507 whole entry): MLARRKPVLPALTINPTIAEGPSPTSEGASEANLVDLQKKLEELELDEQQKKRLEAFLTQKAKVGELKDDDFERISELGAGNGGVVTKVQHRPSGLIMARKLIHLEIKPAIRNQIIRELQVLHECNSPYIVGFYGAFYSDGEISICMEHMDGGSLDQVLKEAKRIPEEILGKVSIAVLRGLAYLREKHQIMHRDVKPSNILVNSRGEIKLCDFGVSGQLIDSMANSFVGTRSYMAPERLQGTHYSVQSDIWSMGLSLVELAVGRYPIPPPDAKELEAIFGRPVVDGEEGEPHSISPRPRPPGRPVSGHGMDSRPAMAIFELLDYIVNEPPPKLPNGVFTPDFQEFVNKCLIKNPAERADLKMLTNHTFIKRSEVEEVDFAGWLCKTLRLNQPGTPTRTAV
Particulars: MEK2, 10 µM; read-out: score (%).

Assay [5] deals with T5, KinomeScan kinase panel (Homo sapiens, UniProt P36888, D835Y).
T5 construct: purchased DiscoveRx (KinomeScan)
T5 sequence (P36888 27-993 D835Y): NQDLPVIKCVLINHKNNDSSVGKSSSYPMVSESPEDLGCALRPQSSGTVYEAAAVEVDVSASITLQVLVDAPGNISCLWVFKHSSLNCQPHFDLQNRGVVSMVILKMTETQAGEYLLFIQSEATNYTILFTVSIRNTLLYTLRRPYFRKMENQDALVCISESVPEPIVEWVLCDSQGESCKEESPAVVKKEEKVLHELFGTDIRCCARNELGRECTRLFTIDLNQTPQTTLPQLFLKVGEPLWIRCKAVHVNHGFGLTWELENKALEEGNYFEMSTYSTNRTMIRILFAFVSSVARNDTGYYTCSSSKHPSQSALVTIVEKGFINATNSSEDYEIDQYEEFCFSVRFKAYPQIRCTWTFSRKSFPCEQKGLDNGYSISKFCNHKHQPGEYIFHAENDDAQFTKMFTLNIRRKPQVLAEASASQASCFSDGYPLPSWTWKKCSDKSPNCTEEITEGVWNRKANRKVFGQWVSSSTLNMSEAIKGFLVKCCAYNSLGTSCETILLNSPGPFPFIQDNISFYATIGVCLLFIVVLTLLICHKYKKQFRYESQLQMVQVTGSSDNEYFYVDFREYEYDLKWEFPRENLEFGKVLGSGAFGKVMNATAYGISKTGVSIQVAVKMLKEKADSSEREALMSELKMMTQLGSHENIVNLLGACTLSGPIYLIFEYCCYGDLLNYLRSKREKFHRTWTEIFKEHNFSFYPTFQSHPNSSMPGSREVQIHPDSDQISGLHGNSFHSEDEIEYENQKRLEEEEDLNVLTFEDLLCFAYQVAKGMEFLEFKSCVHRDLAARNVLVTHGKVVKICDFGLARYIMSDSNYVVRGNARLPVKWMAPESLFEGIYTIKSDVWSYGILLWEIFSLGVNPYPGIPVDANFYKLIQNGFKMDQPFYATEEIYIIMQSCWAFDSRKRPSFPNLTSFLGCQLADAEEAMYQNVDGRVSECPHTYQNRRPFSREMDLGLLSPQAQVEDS
The following applies: FLT3(D835Y), 10 µM; read-out: score (%).

Assay [6] deals with T6, KinomeScan kinase panel (Homo sapiens, UniProt P46734).
T6 construct: purchased DiscoveRx (KinomeScan)
T6 sequence (P46734 1-347): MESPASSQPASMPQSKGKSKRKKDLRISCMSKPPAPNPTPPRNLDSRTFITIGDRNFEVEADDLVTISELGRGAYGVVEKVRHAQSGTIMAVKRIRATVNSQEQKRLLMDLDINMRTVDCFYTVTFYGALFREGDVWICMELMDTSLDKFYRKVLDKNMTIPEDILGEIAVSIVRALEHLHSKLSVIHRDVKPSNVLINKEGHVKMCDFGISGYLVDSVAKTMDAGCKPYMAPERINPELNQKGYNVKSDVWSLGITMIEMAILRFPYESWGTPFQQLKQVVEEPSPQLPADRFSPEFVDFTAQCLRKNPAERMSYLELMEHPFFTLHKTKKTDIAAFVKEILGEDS
The following applies: MEK3, 10 µM; read-out: score (%).

Assay [7] addresses T7, KinomeScan kinase panel (Homo sapiens, UniProt P53667).
T7 construct: purchased DiscoveRx (KinomeScan)
Particulars: LIMK1, 10 µM; read-out: score (%).

Assay [8] deals with T8, KinomeScan kinase panel (Homo sapiens, UniProt Q02763).
T8 construct: purchased DiscoveRx (KinomeScan)
T8 sequence (Q02763 23-1124): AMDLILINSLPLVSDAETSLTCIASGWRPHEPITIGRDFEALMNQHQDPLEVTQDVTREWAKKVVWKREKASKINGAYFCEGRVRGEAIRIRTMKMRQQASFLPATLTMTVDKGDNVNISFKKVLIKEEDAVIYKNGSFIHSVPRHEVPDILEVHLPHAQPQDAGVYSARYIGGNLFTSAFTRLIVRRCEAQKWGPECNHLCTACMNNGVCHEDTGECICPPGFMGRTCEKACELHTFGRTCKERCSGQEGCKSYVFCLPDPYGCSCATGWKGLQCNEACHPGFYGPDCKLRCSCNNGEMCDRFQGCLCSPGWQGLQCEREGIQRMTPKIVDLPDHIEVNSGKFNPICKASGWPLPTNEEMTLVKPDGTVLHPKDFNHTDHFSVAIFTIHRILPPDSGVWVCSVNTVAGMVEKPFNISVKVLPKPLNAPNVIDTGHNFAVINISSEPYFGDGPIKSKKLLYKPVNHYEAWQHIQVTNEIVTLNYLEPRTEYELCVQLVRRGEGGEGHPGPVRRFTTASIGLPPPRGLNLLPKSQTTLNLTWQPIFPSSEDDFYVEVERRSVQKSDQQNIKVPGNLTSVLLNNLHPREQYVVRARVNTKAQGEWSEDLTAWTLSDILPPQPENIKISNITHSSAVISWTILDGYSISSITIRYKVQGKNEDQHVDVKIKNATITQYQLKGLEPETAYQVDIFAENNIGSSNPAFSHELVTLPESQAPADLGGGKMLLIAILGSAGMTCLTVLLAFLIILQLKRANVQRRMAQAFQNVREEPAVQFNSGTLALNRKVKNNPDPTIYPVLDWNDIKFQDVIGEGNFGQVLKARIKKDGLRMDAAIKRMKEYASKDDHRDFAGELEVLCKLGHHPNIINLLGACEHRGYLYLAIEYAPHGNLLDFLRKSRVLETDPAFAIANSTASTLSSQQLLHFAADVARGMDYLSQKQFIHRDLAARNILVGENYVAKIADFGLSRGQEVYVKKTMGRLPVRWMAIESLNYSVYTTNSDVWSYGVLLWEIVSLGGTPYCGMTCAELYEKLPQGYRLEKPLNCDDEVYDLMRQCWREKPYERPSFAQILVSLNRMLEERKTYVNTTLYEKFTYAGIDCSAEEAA
The following applies: read-out: score (%).

In assay [9] the target is T9, KinomeScan kinase panel (Homo sapiens, UniProt Q99755).
T9 construct: purchased DiscoveRx (KinomeScan)
T9 sequence (Q99755 whole entry): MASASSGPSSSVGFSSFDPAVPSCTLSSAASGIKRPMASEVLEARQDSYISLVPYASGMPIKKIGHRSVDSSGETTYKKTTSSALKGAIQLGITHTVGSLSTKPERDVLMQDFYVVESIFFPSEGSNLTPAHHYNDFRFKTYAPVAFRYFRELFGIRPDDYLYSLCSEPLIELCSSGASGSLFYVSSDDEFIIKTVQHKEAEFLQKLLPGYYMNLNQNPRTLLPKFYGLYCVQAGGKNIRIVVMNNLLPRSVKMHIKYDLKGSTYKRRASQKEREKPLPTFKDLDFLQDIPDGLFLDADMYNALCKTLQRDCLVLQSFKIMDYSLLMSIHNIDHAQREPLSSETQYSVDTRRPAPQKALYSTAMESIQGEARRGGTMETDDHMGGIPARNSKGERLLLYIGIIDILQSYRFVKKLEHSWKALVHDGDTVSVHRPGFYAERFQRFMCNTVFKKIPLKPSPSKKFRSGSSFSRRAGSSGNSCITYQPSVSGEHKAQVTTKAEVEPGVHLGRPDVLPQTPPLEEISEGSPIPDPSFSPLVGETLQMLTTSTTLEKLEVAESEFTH
The following applies: PIP5K1A, 10 µM; read-out: score (%).

Where two headings read alike, the source gives them in different places.

T3 sequence (P10721 26-976 D816V): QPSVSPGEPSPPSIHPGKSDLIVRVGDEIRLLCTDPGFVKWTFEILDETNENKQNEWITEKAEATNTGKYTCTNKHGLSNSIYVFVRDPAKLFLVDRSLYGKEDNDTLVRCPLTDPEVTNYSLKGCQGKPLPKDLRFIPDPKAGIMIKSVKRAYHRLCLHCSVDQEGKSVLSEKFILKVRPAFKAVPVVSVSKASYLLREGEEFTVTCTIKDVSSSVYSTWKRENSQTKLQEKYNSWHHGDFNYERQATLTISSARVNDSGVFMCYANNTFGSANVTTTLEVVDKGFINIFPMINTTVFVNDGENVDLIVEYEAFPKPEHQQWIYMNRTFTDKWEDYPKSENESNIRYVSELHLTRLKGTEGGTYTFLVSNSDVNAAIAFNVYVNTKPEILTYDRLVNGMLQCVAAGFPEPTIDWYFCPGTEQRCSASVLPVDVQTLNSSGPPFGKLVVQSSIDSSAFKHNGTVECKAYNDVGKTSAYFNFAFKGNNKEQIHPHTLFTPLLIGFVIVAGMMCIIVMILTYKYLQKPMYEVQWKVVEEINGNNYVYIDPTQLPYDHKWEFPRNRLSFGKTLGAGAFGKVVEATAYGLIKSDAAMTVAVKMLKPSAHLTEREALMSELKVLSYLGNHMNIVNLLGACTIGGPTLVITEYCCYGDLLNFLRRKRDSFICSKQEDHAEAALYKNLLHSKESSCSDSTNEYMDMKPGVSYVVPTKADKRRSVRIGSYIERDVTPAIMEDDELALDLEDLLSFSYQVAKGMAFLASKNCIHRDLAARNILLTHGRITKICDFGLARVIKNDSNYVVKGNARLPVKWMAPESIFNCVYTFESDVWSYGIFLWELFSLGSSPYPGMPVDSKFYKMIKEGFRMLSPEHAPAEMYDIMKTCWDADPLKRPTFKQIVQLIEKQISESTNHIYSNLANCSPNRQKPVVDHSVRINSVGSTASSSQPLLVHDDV
T7 sequence (P53667 whole entry): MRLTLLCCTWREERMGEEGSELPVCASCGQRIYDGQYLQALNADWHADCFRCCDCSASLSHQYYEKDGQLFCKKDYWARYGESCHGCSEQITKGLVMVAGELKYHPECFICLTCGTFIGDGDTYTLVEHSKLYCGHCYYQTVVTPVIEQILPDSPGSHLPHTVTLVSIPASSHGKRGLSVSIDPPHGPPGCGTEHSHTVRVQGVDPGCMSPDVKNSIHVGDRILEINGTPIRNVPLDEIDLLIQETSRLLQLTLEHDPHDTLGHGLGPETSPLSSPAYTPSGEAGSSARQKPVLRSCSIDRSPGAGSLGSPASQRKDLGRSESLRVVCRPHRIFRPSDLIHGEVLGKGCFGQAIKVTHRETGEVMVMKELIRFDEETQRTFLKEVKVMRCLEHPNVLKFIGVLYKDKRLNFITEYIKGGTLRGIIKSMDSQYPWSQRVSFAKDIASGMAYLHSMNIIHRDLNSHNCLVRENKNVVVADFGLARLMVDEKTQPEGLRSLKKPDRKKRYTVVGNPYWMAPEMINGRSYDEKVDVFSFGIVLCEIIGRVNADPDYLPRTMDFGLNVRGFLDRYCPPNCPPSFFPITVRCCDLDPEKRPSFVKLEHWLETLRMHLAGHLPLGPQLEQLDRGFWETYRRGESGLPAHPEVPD

Turning to `CCN1CCN(Cc2ccc(NC(=O)c3ccc(C)c(NC(=O)c4cncc(-c5cccs5)c4)c3)cc2C(F)(F)F)CC1` [ALW-II-41-27], the “score (%)” value at KinomeScan kinase panel [1] is on record as “nb (Hits values higher than 30% were considered negative (no binding: nb))”. Further, the remaining binding at 10 µM at KinomeScan kinase panel [2] was more than 30%; on KinomeScan kinase panel [3], 0.75%; on KinomeScan kinase panel [4], more than 30%; on KinomeScan kinase panel [5], 3.3%; on KinomeScan kinase panel [6] it was more than 30%; at KinomeScan kinase panel [7], 23%. Besides, the remaining binding at 10 µM at KinomeScan kinase panel [8] (kinase TIE2, 10 µM) is 0.45%; on KinomeScan kinase panel [9], more than 30%.
Turning to `CCN1CCN(Cc2ccc(NC(=O)c3ccc(C)c(/C=C/c4cnc5[nH]ccc5c4Cl)c3)cc2C(F)(F)F)CC1` [HG-6-63-01, (E)-3-(2-(4-chloro-1H-pyrrolo[2,3-b]pyridin-5-yl)vinyl)-N-(4-((4-ethylpiperazin-1-yl)methyl)-3-(trifluoromethyl)phenyl)-4-methylbenzamide], at KinomeScan kinase panel [1], the “score (%)” value amounted to 8.7%. The remaining binding at 10 µM was more than 30% on KinomeScan kinase panel [2]; 0.3% at KinomeScan kinase panel [3]; more than 30% at KinomeScan kinase panel [4]; 0.85% at KinomeScan kinase panel [5]; more than 30% at KinomeScan kinase panel [6]; 4.1% on KinomeScan kinase panel [7]. Further, the remaining binding at 10 µM on KinomeScan kinase panel [8] (TIE2, 10 µM) is 0.1%; on KinomeScan kinase panel [9] it was 15%.
As for `CCN1CCN(Cc2ccc(NC(=O)c3ccc(C)c(C#Cc4cccnc4)c3)cc2C(F)(F)F)CC1` [XMD15-44], the “score (%)” value on KinomeScan kinase panel [1] is 24%. Further, the remaining binding at 10 µM at KinomeScan kinase panel [2] is more than 30%; on KinomeScan kinase panel [3], 2%; at KinomeScan kinase panel [4], more than 30%; at KinomeScan kinase panel [5], 0.5%; on KinomeScan kinase panel [6] it was more than 30%; at KinomeScan kinase panel [7] it was 3%. The remaining binding at 10 µM at KinomeScan kinase panel [8] (kinase TIE2, 10 µM) was 0.05%; on KinomeScan kinase panel [9] it was 79%.

For the origin of these results see publication PMC4457528, “Identification of Novel Small Molecule Inhibitors of Oncogenic RET Kinase” (PLoS ONE, 2015).
